Assay results reported in US11970494B2, “6-heteroaryloxy benzimidazoles and azabenzimidazoles as JAK2 inhibitors” (Ajax Therapeutics, Inc., priority 2021, dated 2024).

How the values were obtained:
[1] = biological target: T1, JAK3 (Homo sapiens, UniProt P52333); assay: JAK Family Selectivity Assay: JAK3 vs JAK2 binding affinity; conditions: Kd JAK3 over Kd JAK2
T1 construct: made in house; host or cells: T7 phage in BL21-derived E. coli or HEK-293 cells
T1 sequence (P52333 1-1124): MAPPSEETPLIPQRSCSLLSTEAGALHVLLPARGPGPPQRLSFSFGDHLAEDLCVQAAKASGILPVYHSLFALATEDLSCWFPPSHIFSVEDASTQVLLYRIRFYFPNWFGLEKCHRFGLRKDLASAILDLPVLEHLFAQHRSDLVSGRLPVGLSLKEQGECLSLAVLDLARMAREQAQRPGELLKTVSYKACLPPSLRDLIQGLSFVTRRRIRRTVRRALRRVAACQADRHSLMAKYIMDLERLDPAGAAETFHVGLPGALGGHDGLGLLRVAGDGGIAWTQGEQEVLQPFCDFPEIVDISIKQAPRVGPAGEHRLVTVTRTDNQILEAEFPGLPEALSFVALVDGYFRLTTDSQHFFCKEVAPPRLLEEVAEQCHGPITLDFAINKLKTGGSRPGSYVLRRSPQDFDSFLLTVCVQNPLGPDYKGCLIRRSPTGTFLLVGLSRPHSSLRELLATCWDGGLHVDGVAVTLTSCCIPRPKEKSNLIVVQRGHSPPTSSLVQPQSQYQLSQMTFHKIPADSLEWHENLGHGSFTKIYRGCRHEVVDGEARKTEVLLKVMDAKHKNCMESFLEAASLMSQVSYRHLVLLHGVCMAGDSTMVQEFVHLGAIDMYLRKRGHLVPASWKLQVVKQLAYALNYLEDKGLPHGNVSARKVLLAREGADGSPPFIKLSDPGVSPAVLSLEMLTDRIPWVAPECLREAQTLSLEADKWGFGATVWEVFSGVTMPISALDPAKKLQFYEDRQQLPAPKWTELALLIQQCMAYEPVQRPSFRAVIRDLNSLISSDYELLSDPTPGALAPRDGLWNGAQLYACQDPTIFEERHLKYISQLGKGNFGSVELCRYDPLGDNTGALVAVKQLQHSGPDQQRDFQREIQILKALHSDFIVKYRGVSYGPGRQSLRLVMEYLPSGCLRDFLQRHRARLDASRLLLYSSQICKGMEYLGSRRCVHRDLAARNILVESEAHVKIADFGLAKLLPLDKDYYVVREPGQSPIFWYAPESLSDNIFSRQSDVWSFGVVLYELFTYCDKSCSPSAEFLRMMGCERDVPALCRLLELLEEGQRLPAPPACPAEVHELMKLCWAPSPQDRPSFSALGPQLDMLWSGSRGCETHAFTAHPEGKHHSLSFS
Description: Provided compounds are evaluated for selectivity by comparing their JAK2 binding affinity (Kd) in the above JAK2 Binding Assay with their binding affinity (Kd) for one or more other kinases. Binding affinity for other kinases is determined as follows: Kinase-tagged T7 phage strains are prepared in an E. coli host derived from the BL21 strain. E. coli are grown to log-phase and infected with T7 phage and incubated with shaking at 32° C. until lysis. The lysates are centrifuged and filtered to remove cell debris. The remaining kinases are produced in HEK-293 cells and subsequently tagged with DNA for qPCR detection. Streptavidin-coated magnetic beads are treated with biotinylated small molecule ligands for 30 minutes at room temperature to generate affinity resins for kinase assays. The liganded beads are blocked with excess biotin and washed with blocking buffer (SeaBlock (Pierce), 1% BSA, 0.05% Tween 20, 1 mM DTT) to remove unbound ligand and to reduce non-specific binding. Binding reactions are assembled by combining kinases, liganded affinity beads, and test compounds in 1× binding buffer (20% SeaBlock, 0.17×PBS, 0.05% Tween 20, 6 mM DTT). Test compounds are prepared as 111× stocks in 100% DMSO. Kds are determined using an 11-point 3-fold compound dilution series with three DMSO control points. All compounds for Kd measurements are distributed by acoustic transfer (non-contact dispensing) in 100% DMSO. The compounds are then diluted directly into the assays such that the final concentration of DMSO is 0.9%. All reactions are performed in polypropylene 384-well plate. Each has a final volume of 0.02 ml. The assay plates are incubated at room temperature with shaking for 1 hour and the affinity beads are washed with wash buffer (1×PBS, 0.05% Tween 20). The beads are then re-suspended in elution buffer (1× PBS, 0.05% Tween 20, 0.5 μM non-biotinylated affinity ligand) and incubated at room temperature with shaking for 30 minutes. The kinase concentration in the eluates is measured by qPCR. […] In some embodiments, provided compounds may be JAK2-selective over one or more of the following kinases: JAK1, JAK3, and Tyk2.

[2] = Hepatocyte Stability Assay, human hepatocytes; type: in vitro ADME; conditions: cryopreserved hepatocytes, read-out: Human Heps CLint
Description: (§1) 10 mM stock solutions of test compound and positive control are prepared in DMSO. Stock solutions are diluted to 100 μM by combining 198 μL of 50% acetonitrile/50% water and 2 μL of 10 mM stock solution. Verapamil is used as positive control in the assay. Vials of cryopreserved hepatocytes are thawed in a 37° C. water bath with gently shaking. The contents are poured into the 50 mL thawing medium conical tube. Vials are centrifuged at 100 g for 10 minutes at room temperature. Thawing medium is aspirated and hepatocytes are re-suspended with serum-free incubation medium to yield ˜1.5×10^6 cells/mL. Cell viability and density are counted using a Trypan Blue exclusion, and then cells are diluted with serum-free incubation medium to a working cell density of 0.5×10^6 viable cells/mL. A portion of the hepatocytes at 0.5×10^6 viable cells/mL are boiled for 5 min prior to adding to the plate as negative control to eliminate the enzymatic activity so that little or no substrate turnover should be observed. Aliquots of 198 μL hepatocytes are dispensed into each well of a 96-well non-coated plate. The plate is placed in the incubator for approximately 10 minutes. Aliquots of 2 μL of the 100 μM test compound and 2 μL positive control are added into respective wells of a non-coated 96-well plate to start the reaction. The final concentration of test compound is 1 μM. This assay is performed in duplicate. The plate is incubated in the incubator for the designed time points. 25 μL of contents are transferred and mixed with 6 volumes (150 μL) of cold acetonitrile with internal standard (100 nM alprazolam, 200 nM labetalol, 200 nM caffeine and 200 nM diclofenac) to terminate the reaction at time points of 0, 15, 30, 60, 90 and 120 minutes. Samples are centrifuged for 25 minutes at 3,220 g and aliquots of 150 μL of the supernatants are used for LC-MS/MS analysis.

[3] = Hepatocyte Stability Assay, rat hepatocytes; type: in vitro ADME; conditions: cryopreserved hepatocytes, read-out: Rat Heps CLint
Description: as §1

| Compound | JAK3/JAK2 Kd/Kd ratio [1] | CLint scaled at 1 μM [2] | CLint scaled at 1 μM [3] |
| --- | --- | --- | --- |
| CO[C@@H]1CCN(C(=O)Nc2cc(Oc3cnc4nc(Nc5cc6n(n5)CCC65CCC5)n(C)c4c3C#N)ccn2)C1 [Example I-60, (R)-N-(4-((7-cyano-2-((5′,6′-dihydrospiro[cyclobutane-1,4′-pyrrolo[1,2-b]pyrazol]-2′-yl)amino)-1-methyl-1H-imidazo[4,5-b]pyridin-6-yl)oxy)pyridin-2-yl)-3-methoxypyrrolidine-1-carboxamide] | B (Kd/Kd ratio <1000 and ≥300) | 6 to 12 mL/min/kg | 17 to 35 mL/min/kg |
| COC1CN(C(=O)Nc2cc(Oc3cnc4nc(Nc5cc6n(n5)CCC65CCC5)n(C)c4c3C#N)ccn2)C1 [Example I-61, N-(4-((7-cyano-2-((5′,6′-dihydrospiro[cyclobutane-1,4′-pyrrolo[1,2-b]pyrazol]-2′-yl)amino)-1-methyl-1H-imidazo[4,5-b]pyridin-6-yl)oxy)pyridin-2-yl)-3-methoxyazetidine carboxamide] | A (Kd/Kd ratio ≥1000) | ≤ 6 mL/min/kg | 35 to 45 mL/min/kg |
| COCCOC(=O)Nc1cc(Oc2cnc3nc(Nc4cc5n(n4)CCC54CCC4)n(C)c3c2C#N)ccn1 [Example I-62, 2-methoxyethyl(4-((7-cyano-2-((5′,6′-dihydrospiro[cyclobutane-1,4′-pyrrolo[1,2-b]pyrazol]-2′-yl)amino)-1-methyl-1H-imidazo[4,5-b]pyridin-6-yl)oxy)pyridin-2-yl)carbamate] | A (Kd/Kd ratio ≥1000) | 6 to 12 mL/min/kg | 17 to 35 mL/min/kg |
| COCC(=O)Nc1cc(Oc2cnc3nc(Nc4cc(C(F)(F)F)cn(C)c4=O)n(C)c3c2Cl)ccn1 [Example I-75, N-(4-((7-chloro-1-methyl-2-((1-methyl-2-oxo-5-(trifluoromethyl)-1,2-dihydropyridin-3-yl)amino)-1H-imidazo[4,5-b]pyridin-6-yl)oxy)pyridin-2-yl)-2-methoxyacetamide] | A (Kd/Kd ratio ≥1000) | 12 to 20 mL/min/kg | < 17 mL/min/kg |
| COCC(=O)Nc1cc(Oc2cnc3nc(Nc4cc(C(F)(F)F)cn(C)c4=O)n(C)c3c2C#N)ccn1 [Example I-79, N-(4-((7-cyano-1-methyl-2-((1-methyl-2-oxo-5-(trifluoromethyl)-1,2-dihydropyridin-3-yl)amino)-1H-imidazo[4,5-b]pyridin-6-yl)oxy)pyridin-2-yl)-2-methoxyacetamide] | A (Kd/Kd ratio ≥1000) | 12 to 20 mL/min/kg | 17 to 35 mL/min/kg |
| CC(=O)Nc1cc(Oc2cnc3nc(Nc4cc(C(F)(F)F)cn(C)c4=O)n(C)c3c2Cl)c(F)cn1 [Example I-88, N-(4-((7-chloro-1-methyl-2-((1-methyl-2-oxo-5-(trifluoromethyl)-1,2-dihydropyridin-3-yl)amino)-1H-imidazo[4,5-b]pyridin-6-yl)oxy)-5-fluoropyridin-2-yl)acetamide] | A (Kd/Kd ratio ≥1000) | 12 to 20 mL/min/kg | 17 to 35 mL/min/kg |
| Cn1c(Nc2cc3n(n2)CCC32CCC2)nc2ncc(Oc3ccnc(NC(=O)C4CC4)c3)c(C#N)c21 [Example I-122, N-(4-((7-cyano-2-((5′,6′-dihydrospiro[cyclobutane-1,4′-pyrrolo[1,2-b]pyrazol]-2′-yl)amino)-1-methyl-1H-imidazo[4,5-b]pyridin-6-yl)oxy)pyridin-2-yl)cyclopropanecarboxamide] | B (Kd/Kd ratio <1000 and ≥300) | 12 to 20 mL/min/kg | < 17 mL/min/kg |
| CCN1CCN(Cc2ccc(Nc3nc4ccc(Oc5ccnc(NC(C)=O)c5)cc4n3C)cc2C(F)(F)F)CC1 [Example R-1, reference compound] | A (Kd/Kd ratio ≥1000) | 12 to 20 mL/min/kg | 35 to 45 mL/min/kg |
